Measured values taken from PubChem BioAssay (NCI).
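Tested at 5 concentrations; 48 h exposure; 96-well plates; endpoints linearly interpolated, else capped at highest concentration. Definition used: TGI = concentration required for complete inhibition of growth.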

How the values were obtained:
Test in all cases: DTP human tumour cell line panel, 48 h
[1] = tested on: KM12 colon
[2] = tested on: SF-268 CNS
[3] = tested on: M14 melanoma
[4] = tested on: COLO 205 colon
[5] = tested on: NCI/ADR-RES ovarian
[6] = tested on: MALME-3M melanoma
[7] = tested on: U251 CNS
[8] = tested on: HOP-92 NSCLC
[9] = tested on: UACC-257 melanoma
[10] = tested on: BT-549 breast
[11] = tested on: HCC-2998 colon
[12] = tested on: SNB-19 CNS
[13] = tested on: HS 578T breast
[14] = tested on: ACHN renal
[15] = tested on: NCI-H460 lung
[16] = tested on: NCI-H226 lung
[17] = tested on: SNB-75 CNS
[18] = tested on: NCI-H23 lung
[19] = tested on: MDA-MB-231 breast
[20] = tested on: NCI-H522 lung
[21] = tested on: K-562 leukemia
[22] = tested on: OVCAR-3 ovarian
[23] = tested on: CCRF-CEM leukemia
[24] = tested on: DU-145 prostate
[25] = tested on: HT29 colon
[26] = tested on: OVCAR-8 ovarian
[27] = tested on: MCF7 breast
[28] = tested on: OVCAR-4 ovarian
[29] = tested on: TK-10 renal
[30] = tested on: CAKI-1 renal
[31] = tested on: SW-620 colon
[32] = tested on: RXF 393 renal
[33] = tested on: HCT-116 colon
[34] = tested on: RPMI-8226 leukemia
[35] = tested on: A498 renal
[36] = tested on: MOLT-4 leukemia
[37] = tested on: UACC-62 melanoma
[38] = tested on: IGROV1 ovarian
[39] = tested on: LOX IMVI melanoma
[40] = tested on: A549 NSCLC
[41] = tested on: SF-539 CNS
[42] = tested on: MDA-N
[43] = tested on: SR leukemia
[44] = tested on: UO-31 renal
[45] = tested on: SN12C renal
[46] = tested on: HL-60(TB) leukemia
[47] = tested on: MDA-MB-435
[48] = tested on: OVCAR-5 ovarian
[49] = tested on: SK-MEL-5 melanoma
[50] = tested on: SF-295 CNS
[51] = tested on: HCT-15 colon
[52] = tested on: 786-0 renal
[53] = tested on: PC-3 prostate
[54] = tested on: SK-MEL-28 melanoma
[55] = tested on: HOP-62 NSCLC
[56] = tested on: T-47D breast
[57] = tested on: SK-MEL-2 melanoma
[58] = tested on: SK-OV-3 ovarian

## CC(=O)OC1C[C@@H](C)C2(CC(c3ccoc3)OC2=O)C2CCC(O)C3(CO3)C12CO (some centres undefined)
[1]
  TGI: > 100 µM
[2]
  TGI: > 100 µM
[3]
  TGI: > 100 µM
[4]
  TGI: > 100 µM
[5]
  TGI: > 100 µM
[6]
  TGI: > 100 µM
[7]
  TGI: > 100 µM
[8]
  TGI: > 100 µM
[9]
  TGI: > 100 µM
[10]
  TGI: > 100 µM
[11]
  TGI: > 100 µM
[12]
  TGI: > 100 µM
[13]
  TGI: > 100 µM
[14]
  TGI: > 100 µM
[15]
  TGI: > 100 µM
[16]
  TGI: > 100 µM
[17]
  TGI: > 100 µM
[18]
  TGI: > 100 µM
[19]
  TGI: > 100 µM
[20]
  TGI: > 100 µM
[21]
  TGI: > 100 µM
[22]
  TGI: > 100 µM
[23]
  TGI: > 100 µM
[24]
  TGI: > 100 µM
[25]
  TGI: > 100 µM
[26]
  TGI: > 100 µM
[27]
  TGI: > 100 µM
[28]
  TGI: > 100 µM
[29]
  TGI: > 100 µM
[30]
  TGI: > 100 µM
[31]
  TGI: > 100 µM
[32]
  TGI: > 100 µM
[33]
  TGI: > 100 µM
[34]
  TGI: > 100 µM
[35]
  TGI: > 100 µM
[36]
  TGI: > 100 µM
[37]
  TGI: > 100 µM
[38]
  TGI: > 100 µM
[39]
  TGI: > 100 µM
[40]
  TGI: > 100 µM
[41]
  TGI: > 100 µM
[42]
  TGI: > 100 µM
[43]
  TGI: > 100 µM
[44]
  TGI: > 100 µM
[45]
  TGI: > 100 µM
[46]
  TGI: > 100 µM
[47]
  TGI: > 100 µM
[48]
  TGI: > 100 µM
[49]
  TGI: > 100 µM
[50]
  TGI: > 100 µM
[51]
  TGI: > 100 µM
[52]
  TGI: > 100 µM
[53]
  TGI: > 100 µM
[54]
  TGI: > 100 µM
[55]
  TGI: > 100 µM
[56]
  TGI: > 100 µM
[57]
  TGI: > 100 µM

## CC1OC(O[C@H]2CC[C@]3(C)[C@H]4CC=C5[C@@H]6[C@@H](C)[C@H](C)CC[C@]6(C(=O)OC6OC(CO)C(O)C(O)C6O)CC[C@@]5(C(=O)O)[C@]4(C)CC[C@H]3C2(C)C)C(O)C(O)C1O (some centres undefined)
[1]
  TGI: > 100 µM
[2]
  TGI: > 100 µM
[3]
  TGI: > 100 µM
[4]
  TGI: > 100 µM
[5]
  TGI: > 100 µM
[7]
  TGI: > 100 µM
[8]
  TGI: > 100 µM
[9]
  TGI: > 100 µM
[10]
  TGI: > 100 µM
[11]
  TGI: > 100 µM
[12]
  TGI: > 100 µM
[13]
  TGI: > 100 µM
[14]
  TGI: > 100 µM
[15]
  TGI: > 100 µM
[17]
  TGI: > 100 µM
[18]
  TGI: > 100 µM
[19]
  TGI: > 100 µM
[20]
  TGI: > 100 µM
[21]
  TGI: > 100 µM
[22]
  TGI: > 100 µM
[23]
  TGI: > 100 µM
[58]
  TGI: > 100 µM
[24]
  TGI: > 100 µM
[26]
  TGI: > 100 µM
[27]
  TGI: > 100 µM
[28]
  TGI: > 100 µM
[29]
  TGI: > 100 µM
[30]
  TGI: > 100 µM
[31]
  TGI: > 100 µM
[32]
  TGI: > 100 µM
[33]
  TGI: > 100 µM
[35]
  TGI: > 100 µM
[36]
  TGI: > 100 µM
[37]
  TGI: > 100 µM
[39]
  TGI: > 100 µM
[41]
  TGI: > 100 µM
[42]
  TGI: > 100 µM
[43]
  TGI: > 100 µM
[44]
  TGI: > 100 µM
[45]
  TGI: > 100 µM
[46]
  TGI: > 100 µM
[47]
  TGI: > 100 µM
[48]
  TGI: > 100 µM
[49]
  TGI: > 100 µM
[50]
  TGI: > 100 µM
[51]
  TGI: > 100 µM
[52]
  TGI: > 100 µM
[53]
  TGI: > 100 µM
[55]
  TGI: > 100 µM
[56]
  TGI: > 100 µM
[57]
  TGI: > 100 µM

## COc1cc(S(=O)(=O)Nc2nc(-c3ccc(N4C(=O)/C(=C\c5cccs5)N=C4c4ccccc4)cc3)cs2)ccc1Cl
[1]
  TGI: > 100 µM
[2]
  TGI: 59 µM
[3]
  TGI: > 100 µM
[4]
  TGI: > 100 µM
[5]
  TGI: > 100 µM
[6]
  TGI: 55.5 µM
[7]
  TGI: > 100 µM
[8]
  TGI: 89.8 µM
[9]
  TGI: > 100 µM
[10]
  TGI: 83.4 µM
[12]
  TGI: > 100 µM
[13]
  TGI: 63.9 µM
[14]
  TGI: > 100 µM
[15]
  TGI: > 100 µM
[16]
  TGI: > 100 µM
[17]
  TGI: > 100 µM
[18]
  TGI: > 100 µM
[19]
  TGI: 56.6 µM
[20]
  TGI: 83.8 µM
[21]
  TGI: > 100 µM
[22]
  TGI: > 100 µM
[23]
  TGI: > 100 µM
[58]
  TGI: > 100 µM
[24]
  TGI: > 100 µM
[25]
  TGI: > 100 µM
[26]
  TGI: > 100 µM
[27]
  TGI: > 100 µM
[28]
  TGI: > 100 µM
[29]
  TGI: > 100 µM
[30]
  TGI: > 100 µM
[31]
  TGI: > 100 µM
[32]
  TGI: > 100 µM
[33]
  TGI: > 100 µM
[35]
  TGI: > 100 µM
[36]
  TGI: > 100 µM
[37]
  TGI: 65.5 µM
[38]
  TGI: > 100 µM
[39]
  TGI: > 100 µM
[40]
  TGI: > 100 µM
[41]
  TGI: > 100 µM
[42]
  TGI: > 100 µM
[43]
  TGI: > 100 µM
[44]
  TGI: > 100 µM
[45]
  TGI: > 100 µM
[46]
  TGI: > 100 µM
[47]
  TGI: > 100 µM
[48]
  TGI: > 100 µM
[49]
  TGI: > 100 µM
[50]
  TGI: > 100 µM
[51]
  TGI: > 100 µM
[52]
  TGI: > 100 µM
[53]
  TGI: > 100 µM
[54]
  TGI: > 100 µM
[55]
  TGI: > 100 µM
[56]
  TGI: > 100 µM
[57]
  TGI: 64.8 µM
